According to ChEMBL document CHEMBL1201862, “PubChem BioAssay data set” (2004):
Calls of active or inactive are those of the source.

Tests used:
Beta-galactosidase = Beta-galactosidase (Escherichia coli, UniProt Q8VNN2); test: PubChem AID 485352; assay type: functional
[1] = target: T1, Type-1 angiotensin II receptor (Homo sapiens, UniProt P30556); test: antagonism of angiotensin II type 1 receptor – cell-based, uHTS hits, selectivity assay for APJ receptor antagonist project, dose response (AID 463214); assay type: functional;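 also: antagonist potency against angiotensin II stimulated AT1 response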
T1 sequence (P30556 whole entry): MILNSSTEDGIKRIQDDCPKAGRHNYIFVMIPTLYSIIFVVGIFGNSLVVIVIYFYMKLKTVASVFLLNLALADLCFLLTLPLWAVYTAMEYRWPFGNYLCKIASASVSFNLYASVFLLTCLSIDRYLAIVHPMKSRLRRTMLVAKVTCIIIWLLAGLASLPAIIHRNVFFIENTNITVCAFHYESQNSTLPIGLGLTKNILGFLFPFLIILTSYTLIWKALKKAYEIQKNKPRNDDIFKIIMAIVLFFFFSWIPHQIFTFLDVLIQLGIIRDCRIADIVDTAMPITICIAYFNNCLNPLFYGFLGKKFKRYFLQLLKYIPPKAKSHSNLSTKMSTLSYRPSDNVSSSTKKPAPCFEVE

Escherichia coli [2] = test: microbe, parasite or virus in culture
A-375 [3] = test: MITF: Counter assay: A375 proliferation Measured in Cell-Based System Using Plate Reader - 2084-03_Inhibitor_Dose_DryPowder_Activity. [Related pubchem assays (depositor defined):AID488944]; assay type: functional; settings: Homo sapiens
Vero [4] = test: cells; assay type: functional; settings: Chlorocebus sabaeus
A-375 [5] = test: proliferation inhibition in MITF-low A375 cells – cell-based, cherry-pick samples, set 2, counter-screen for MITF modulator project, dose response (AID 540335); assay type: functional; settings: Homo sapiens
[6] = system: Streptococcus sp. 'group A'; test: Streptococcus pyogenes SK(-)GAS viability under kanamycin – luminescence, BacTiterGlo, confirmation, counter-screen for streptokinase expression inhibitor project, dose response (AID 1900); assay type: functional, organism-based
Streptococcus = test: GAS UMAA2166 growth inhibition – luminescence, BacTiterGlo, counter-screen for streptokinase expression inhibitor project, dose response (AID 1915); assay type: functional, organism-based;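 also: potency for reduction of bacterial viability or growth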
cells = assay type: functional
Escherichia coli [7] = test: microbe, parasite or virus in culture; remark: listed apart in the source
Vero [8] = test: mammalian cell viability reduction – secondary assay, cytotoxicity control for West Nile virus antiviral project, dose response (AID 1650); assay type: functional; settings: Chlorocebus sabaeus
[9] = Luminescence Cell-Based Dose Retest to Confirm Inhibitors of Cancer Stem Cells. [Related pubchem assays (depositor defined):AID2717, AID2721]; assay type: functional; settings: Homo sapiens
[10] = viability loss of HMLE_sh_eGFP cells – cell-based, luminescence, counter-screen for HMLE_sh_ECad selective toxicity project, dose response (AID 463074); assay type: functional, Homo sapiens;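 also: HMLE human mammary epithelial cells expressing control shRNA against eGFP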
[11] = target: Microphthalmia-associated transcription factor (Homo sapiens, UniProt O75030); test: reducers of TRPM1 reporter luminescence, concentration series – cell-based, SK-MEL-5, cherry-picked, set 3, MITF inhibitor project, dose response (AID 493073); assay type: functional;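 also: SK-MEL-5 melanoma cells with luciferase driven by the MITF target TRPM1 promoter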
[12] = HEK-293T cell viability reduction – luminescence, B-cell screen hits, cytotoxicity control for BCR NF-kB inhibitor project, dose response (AID 489021); assay type: functional, cell-based;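 also: HEK-293T cells carrying an NF-kB luciferase reporter; cells exposed to compound for about 14 hours before viability readout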
Vero [13] = test: cells; assay type: functional, cell-based; settings: Chlorocebus sabaeus
INS1 = test: INS-1E survival protection against cytokine death – cell-based, luminescence, retest, dose response (AID 449756); assay type: functional; settings: Rattus norvegicus;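 also: cell death triggered by IL-1 beta plus TNF-alpha plus IFN-gamma mixture; protective hits raise ATP signal compared with cytokine alone wells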
HEK293 = test: EBV LMP1 TES2 canonical NF-kB signalling blockers – cell-based, HEK293, luciferase, cherry-pick, dose response (AID 588343); assay type: functional; settings: Homo sapiens
[14] = target: Latent membrane protein 1 (Human herpesvirus 4 (strain B95-8), UniProt P03230); test: LMP1 TES1 pathway selectivity over dsRED control – imaging, HEK293T, dual-color eGFP/dsRED, cherry-picks, selectivity assay for LMP1 NF-kB inhibitor project, dose response (AID 588398); assay type: functional, cell-based
[15] = reduction of Shn3 3'UTR-driven luciferase in osteoblasts – cell-based, Clone20 osteoblasts, firefly luciferase, cherry-picked, dose response (AID 624132); assay type: functional;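 also: firefly luciferase luminescence from reporter carrying the Shn3 3'UTR in osteoblasts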
[16] = loss of viability in HepG2 cells – cell-based, CellTiter-Glo, cherry-picked, cytotoxicity control for Shn3 inhibitor project, dose response (AID 624134); assay type: functional
[17] = non-specific 3'UTR reporter inhibition in Clone20-Shn3RL – cell-based, Renilla luciferase, cherry-picked, counter-screen for Shn3 inhibitor project, dose response (AID 624133); assay type: functional
[18] = target: Dual specificity tyrosine-phosphorylation-regulated kinase 1A (Rattus norvegicus, UniProt Q63470); assay type: biochemical, Homo sapiens
Vero [19] = test: viability of Vero cells under compound – cytotoxicity control for flavivirus capping enzyme inhibitors (AID 588742); assay type: functional; settings: Chlorocebus sabaeus
Genome polyprotein = Genome polyprotein (dengue virus type 2, UniProt P29990); test: flavivirus cap methylation enzyme inhibition – biochemical, confirmation dose response, primary screen (AID 588689); assay type: functional
Prothrombin = Prothrombin (Homo sapiens, UniProt P00734); test: Thrombin 1536 HTS Dose Response Confirmation. [Related pubchem assays: 1046 (Thrombin 1536 HTS; hits were confirmed in this assay)]; assay type: functional
Cysteine protease ATG4B = Cysteine protease ATG4B (Homo sapiens, UniProt Q9Y4P1); assay type: functional;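 also: Fluorescence-based dose-response confirmation assay measuring inhibition of ATG4B activity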
Phospholipase A2 = Phospholipase A2 (Homo sapiens, UniProt P04054); assay type: functional;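 also: confirmatory dose-response counterscreen on phospholipase A2, testing hits that came from an ultra-high-throughput screen for ATG4B inhibitors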
Phospholipase A2, sequence (P04054 whole entry): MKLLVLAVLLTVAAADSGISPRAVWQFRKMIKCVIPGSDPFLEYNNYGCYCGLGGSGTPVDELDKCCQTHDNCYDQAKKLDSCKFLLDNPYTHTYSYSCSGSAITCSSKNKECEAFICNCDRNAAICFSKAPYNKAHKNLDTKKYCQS

Latent membrane protein 1, sequence (P03230 whole entry): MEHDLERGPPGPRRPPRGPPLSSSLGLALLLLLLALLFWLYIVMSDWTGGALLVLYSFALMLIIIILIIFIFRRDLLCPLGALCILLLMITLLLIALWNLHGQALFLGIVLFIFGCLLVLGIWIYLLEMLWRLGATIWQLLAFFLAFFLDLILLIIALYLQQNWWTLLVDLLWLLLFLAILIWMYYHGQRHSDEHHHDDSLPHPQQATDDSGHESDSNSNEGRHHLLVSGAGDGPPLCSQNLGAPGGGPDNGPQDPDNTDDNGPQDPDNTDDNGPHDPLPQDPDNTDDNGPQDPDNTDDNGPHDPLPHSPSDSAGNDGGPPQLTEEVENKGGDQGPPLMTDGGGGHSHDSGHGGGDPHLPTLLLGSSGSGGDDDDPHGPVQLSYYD
Genome polyprotein, sequence (P29990 2492-3391 limits assumed): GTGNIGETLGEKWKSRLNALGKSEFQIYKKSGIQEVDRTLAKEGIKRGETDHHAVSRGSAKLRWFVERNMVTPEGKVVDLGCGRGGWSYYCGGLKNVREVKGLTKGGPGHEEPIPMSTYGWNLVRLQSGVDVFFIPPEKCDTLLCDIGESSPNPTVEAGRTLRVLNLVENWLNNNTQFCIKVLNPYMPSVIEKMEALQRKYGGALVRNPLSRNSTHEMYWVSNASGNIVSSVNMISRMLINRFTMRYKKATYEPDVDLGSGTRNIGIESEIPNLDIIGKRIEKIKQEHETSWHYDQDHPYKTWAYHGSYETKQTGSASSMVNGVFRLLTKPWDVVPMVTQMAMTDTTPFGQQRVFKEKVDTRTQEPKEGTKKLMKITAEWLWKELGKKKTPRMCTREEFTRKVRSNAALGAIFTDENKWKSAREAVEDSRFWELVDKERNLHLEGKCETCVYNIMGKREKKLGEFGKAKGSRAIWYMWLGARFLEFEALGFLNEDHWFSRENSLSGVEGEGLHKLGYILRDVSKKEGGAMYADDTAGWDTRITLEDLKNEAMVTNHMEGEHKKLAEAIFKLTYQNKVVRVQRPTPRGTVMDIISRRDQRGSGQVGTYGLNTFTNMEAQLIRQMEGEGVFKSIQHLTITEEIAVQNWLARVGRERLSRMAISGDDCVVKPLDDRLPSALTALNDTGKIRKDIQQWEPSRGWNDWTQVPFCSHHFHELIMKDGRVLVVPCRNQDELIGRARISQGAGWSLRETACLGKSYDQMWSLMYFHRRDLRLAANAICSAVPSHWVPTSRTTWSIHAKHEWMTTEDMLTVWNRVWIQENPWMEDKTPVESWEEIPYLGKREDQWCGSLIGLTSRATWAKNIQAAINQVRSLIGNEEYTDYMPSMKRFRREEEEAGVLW
Microphthalmia-associated transcription factor, sequence (O75030 whole entry): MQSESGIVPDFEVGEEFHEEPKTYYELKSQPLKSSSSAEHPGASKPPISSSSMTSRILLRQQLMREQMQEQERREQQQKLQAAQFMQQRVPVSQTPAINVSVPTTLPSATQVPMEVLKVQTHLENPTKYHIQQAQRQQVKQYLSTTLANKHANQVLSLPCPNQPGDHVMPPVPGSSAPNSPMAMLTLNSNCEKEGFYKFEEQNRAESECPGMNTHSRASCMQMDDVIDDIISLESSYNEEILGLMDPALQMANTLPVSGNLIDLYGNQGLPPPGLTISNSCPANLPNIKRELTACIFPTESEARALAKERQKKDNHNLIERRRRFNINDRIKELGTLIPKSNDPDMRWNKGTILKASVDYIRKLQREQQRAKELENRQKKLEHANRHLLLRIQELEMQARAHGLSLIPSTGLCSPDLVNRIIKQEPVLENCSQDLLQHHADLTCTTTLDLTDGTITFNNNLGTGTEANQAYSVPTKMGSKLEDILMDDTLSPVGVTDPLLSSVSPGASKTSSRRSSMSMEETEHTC
Cysteine protease ATG4B, sequence (Q9Y4P1 whole entry): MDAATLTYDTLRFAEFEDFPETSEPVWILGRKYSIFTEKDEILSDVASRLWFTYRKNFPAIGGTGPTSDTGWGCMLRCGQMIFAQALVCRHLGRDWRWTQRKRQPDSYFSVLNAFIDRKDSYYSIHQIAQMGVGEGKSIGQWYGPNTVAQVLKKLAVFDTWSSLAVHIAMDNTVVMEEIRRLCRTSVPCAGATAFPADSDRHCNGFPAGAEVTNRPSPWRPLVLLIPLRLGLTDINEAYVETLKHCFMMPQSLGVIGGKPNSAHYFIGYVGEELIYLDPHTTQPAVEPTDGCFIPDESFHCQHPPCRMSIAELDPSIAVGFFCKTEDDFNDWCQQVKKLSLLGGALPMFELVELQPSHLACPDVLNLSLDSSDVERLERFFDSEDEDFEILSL
Beta-galactosidase, sequence (Q8VNN2 whole entry): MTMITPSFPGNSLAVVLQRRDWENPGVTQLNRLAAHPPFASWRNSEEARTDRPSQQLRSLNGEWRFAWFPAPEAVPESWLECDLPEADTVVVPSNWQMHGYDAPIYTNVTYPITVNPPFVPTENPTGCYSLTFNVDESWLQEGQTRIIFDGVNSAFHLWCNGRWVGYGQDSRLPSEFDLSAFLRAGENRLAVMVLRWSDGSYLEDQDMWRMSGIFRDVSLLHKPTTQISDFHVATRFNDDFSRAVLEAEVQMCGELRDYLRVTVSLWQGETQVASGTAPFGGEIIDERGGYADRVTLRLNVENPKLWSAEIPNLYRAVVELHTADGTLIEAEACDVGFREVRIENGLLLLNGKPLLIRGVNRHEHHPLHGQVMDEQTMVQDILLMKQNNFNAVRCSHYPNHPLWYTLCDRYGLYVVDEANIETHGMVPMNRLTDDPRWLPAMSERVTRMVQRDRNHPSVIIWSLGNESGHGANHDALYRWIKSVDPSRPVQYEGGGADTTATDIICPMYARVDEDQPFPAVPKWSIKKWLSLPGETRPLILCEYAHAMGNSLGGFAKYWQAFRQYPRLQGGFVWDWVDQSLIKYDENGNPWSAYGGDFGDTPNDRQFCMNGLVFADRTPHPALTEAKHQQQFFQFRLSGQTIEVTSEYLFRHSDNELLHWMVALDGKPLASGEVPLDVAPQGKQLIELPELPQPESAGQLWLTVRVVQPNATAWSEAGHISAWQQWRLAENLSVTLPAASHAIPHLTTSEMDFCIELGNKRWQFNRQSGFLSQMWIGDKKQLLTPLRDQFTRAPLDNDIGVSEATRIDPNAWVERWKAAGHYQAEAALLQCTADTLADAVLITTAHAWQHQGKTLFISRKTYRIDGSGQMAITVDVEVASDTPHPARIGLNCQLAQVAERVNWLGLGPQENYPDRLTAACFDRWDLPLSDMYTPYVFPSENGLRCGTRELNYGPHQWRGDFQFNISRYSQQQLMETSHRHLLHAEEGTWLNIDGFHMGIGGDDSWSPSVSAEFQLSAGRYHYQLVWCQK

With `CC(C)NC(=S)N/N=C1\CCCCC1C1CCCCC1` (configuration not stated) the EC50 (Beta-galactosidase) was > 40 µM (inactive) and the IC50 [1] was > 40 µM (not active).
In the case of `CCOC(=O)C1=C(C)c2ccccc2OC1(C(=O)OCC)C(C)C` (configuration not stated), the AC50 (Escherichia coli [2]) is reported as 379 µM (active).
With `CCN1CCN(CCCNC(=O)c2ccc3c(Cl)c4c(nc3c2)CCCC4)CC1` the AC50 (A-375 [3]) was > 11 µM (active), the CC50 (Vero [4]) was 18.7 µM (active) and the AC50 (A-375 [5]) was > 11 µM (active).
With `CNC(=S)N1CCN(c2c(F)cc3c(=O)c(C(=O)O)cn(C4CC4)c3c2OC)CC1C` (configuration not stated) the EC50 [6] was 0.179 µM (active), the EC50 (Streptococcus) was 0.229 µM (active) and the IC50 (cells) was 2.57 µM (active). The AC50 (Escherichia coli [7]) was 1.44 µM (active).
In the case of `Cc1nc2ccccn2c1C(=O)/C=C/c1cccc([N+](=O)[O-])c1`, the CC50 (Vero [8]) is reported as 5.91 µM (active), the AC50 [9] is reported as 26.6 µM (active) and the AC50 [10] is reported as 56.9 µM (active). For the same compound, the AC50 [11] was 6.9 µM (active), the IC50 [12] was > 80 µM (inactive) and the IC50 (Vero [13]) was 17.2 µM (active). For the same compound, the AC50 (A-375 [3]) was > 35 µM (active), the AC50 (INS1) was 8.14 µM (active) and the CC50 (Vero [4]) was 24 µM (active). For the same compound, the AC50 (A-375 [5]) was > 35 µM (active).
With `CC(C)(O)C#Cc1ccc([C@@H]2C[C@H]3CN(c4ccccc4)C(=O)[C@]34CCCN24)s1` the AC50 (HEK293) was 11.9 µM (active), the AC50 [14] was 5.64 µM (active) and the AC50 [15] was 4.93 µM (active). The AC50 [16] was > 70 µM (inactive) and the AC50 [17] was > 70 µM (inactive).
For `Cc1sc(NC(=O)c2ccco2)nc1-c1ccccc1`, the AC50 [18] was 3.67 µM (active).
With `O=C(NCC(c1cccs1)N1CCOCC1)c1ccccc1NS(=O)(=O)c1ccc(Cl)c([N+](=O)[O-])c1` (configuration not stated) the CC50 (Vero [19]) was 38.8 µM (active) and the IC50 (Genome polyprotein) was > 100 µM (active).
For `COC(=O)C1C(O)C(C)C(O)C(C)(O)/C=C\C=C(/C)C(=O)Nc2c(C)c(OC(C)=O)c3c(c2O)C(=O)C(C)=C2OCOC(=C23)/C(C)=C/C(C)(O)C(O)C(C)C1O` (configuration not stated), the AC50 (Escherichia coli [7]) was > 150 µM (inactive).
In the case of `O=C(NN=C1CCCCCC1)c1cn(-c2ccccc2)nc1-c1ccccc1`, the IC50 (Prothrombin) is reported as > 50 µM (not active), the IC50 (Cysteine protease ATG4B) is reported as 13.8 µM (active) and the IC50 (Phospholipase A2) is reported as 20.8 µM (inactive).
